# Measurements reported in article PMC12811501, “A plant-derived antimicrobial peptide with multiple mechanisms of action exhibiting antibacterial and antibiofilm activities comparable to or superior to polymyxin B” (Current Research in Microbial Sciences, 2025).
# Residues, ends and D or L forms follow the SMILES beside them.
# Key:
# E. coli = experiment: Live/Dead staining (SYTO 9 / PI) of membrane integrity, confocal microscopy; type: cell-based, Escherichia coli; conditions: 10 min
# Description: Microbial cell membrane integrity or damage was assayed with Live/Dead staining. E. coli were grown as for the antimicrobial activity assay and washed with PPB. […] Untreated cells served as negative control. Cells were subsequently stained with 5 μM SYTO 9 and 5 μM propidium iodide (PI). After a 10-minute incubation in the dark, 5 µl of each cell suspension was placed on a microscope slide, covered with thin 2 % (w/v) agar slices, and examined using an Olympus Fluoview FV1000 confocal laser microscope at × 60 magnification. For SYTO 9, excitation was at 488 nm and emission was collected between 500 and 530 nm; for PI, excitation was at 543 nm with emission detected between 555 and 655 nm. Sequential scanning was used to avoid crosstalk of the fluorescent dyes.
# Next, we investigated whether the application of NCR169C17–38 peptide affects membrane permeability of E. coli, and if so, to what extent and how rapidly these changes occur.
# A. baumannii = type: cell-based, Acinetobacter baumannii; conditions: 8 h
# Description: For serum stability test human blood was purchased from the Regional Blood Centre in Szeged (the use of human blood has been authorized by the Regional Hungarian Ethics Committee and approved by the Ethics Review Sector of DG RTD (European Commission) in connection with EK’s ERC AdG SymBiotics). The cells from 10 ml of EDTA-blood were centrifuged at 1500 × g for 1 min and washed several times in TBS buffer (10 mM Tris, pH: 7.2, 150 mM NaCl) until the supernatant, representing the serum, became colorless. The NCR169C17–38 peptide was added to the serum at 1:1 ratio and incubated at room temperature for 8 h. Subsequently, serial 2-fold dilutions of the peptide were prepared in PPB, with concentrations ranging from 100 to 0.2 µM and antimicrobial assay was done to determine the MBC values. Experiments were done in three biological replicates.
# [1] = Liposome sedimentation assay; type: binding; conditions: 20 μM peptide, 30 min room temperature, 200,000 × g, SDS-PAGE
# Description: To prepare the liposomes, phospholipids DMPC and Cardiolipin purchased from Avanti Polar Lipids (Alabaster, AL, USA) were dissolved in Chloroform:Methanol:Water in the ratio of (65:25:4) and (73:23:3) respectively, and dried under vacuum for 1 h. The lipid film was suspended in the assay buffer (20 mM HEPES, 150 mM NaCl, pH 7.0), vortexed, and sonicated for 15 min to form the liposomes. The assay was carried out by incubating 2 mM of the liposomes with 20 μM of NCR169C17–38 peptide and incubated for 30 min at room temperature, followed by ultracentrifugation at 200,000 × g for 15 min at 20 °C. After centrifugation, the supernatant (sn) and pellet (p) fractions were collected separately and were subjected to glycine-SDS-PAGE. The peptides were detected by Coomassie Brilliant Blue staining.
# Prepared liposomes were incubated with NCR169C17–38, then separated by ultracentrifugation. Peptide remaining in the supernatant (sn) fraction indicated no binding, whereas peptide detected in the pellet (p) fraction indicated liposome association.
# E. coli genomic DNA = experiment: Gel retardation assay; type: binding, Escherichia coli; conditions: 100 ng E. coli genomic DNA, 10 or 100 µM peptide, 30 min at 37 °C
# Description: (§1) The DNA- and RNA-binding abilities of NCR169C17–38, its parental peptide NCR169, and two shorter derivatives (NCR169_16–27 and NCR169_17–27) were initially evaluated using a gel retardation assay. In this setup, 100 ng of either E. coli genomic DNA or total RNA was incubated with 10 µM or 100 µM of each peptide for 30 min at 37 °C. Reaction mixtures, along with untreated controls, were then subjected to agarose gel electrophoresis, and the resulting nucleic acid migration patterns were examined for changes indicative of peptide binding. The interaction of NCR169C17–38 with circular plasmid DNA (pDEST-GBKT7) was also characterized using peptide concentrations ranging from 50 µM to 0.8 µM, prepared by 2-fold serial dilution. Experiments were done in three biological replicates.
# (§2) To explore whether the NCR169C17–38 peptide has secondary intracellular targets of the bacterial cells beyond the primary membrane disruption, we tested its possible interaction with nucleic acids in gel retardation assays. A pilot experiment indicated strong DNA-binding capacity, prompting us to include the parental NCR169 peptide and the shorter derivatives NCR169_16–27 and NCR169_17–27 for comparison (Fig. 3.). […] Similar results were obtained with total E. coli RNA (Fig. 3.B). […]
# E. coli total RNA = experiment: Gel retardation assay; type: binding, Escherichia coli; conditions: 100 ng E. coli total RNA, 10 or 100 µM peptide, 30 min at 37 °C
# Description: as §1, §2
# Candida species = conditions: ref Szerencsés et al., 2021; cited from earlier work
# Description: (§3) NCR169 is another NCR peptide essential for differentiation of nitrogen fixing bacteroids in Medicago species ([Horváth et al., 2015]). This 38-amino-acid peptide contains four cysteines that are critical for its symbiotic function in planta.
# Cryptococcus neoformans = conditions: ref Szerencsés et al., 2025; cited from earlier work
# Description: as §3
# [2] = test system: human keratinocyte HaCaT cells; conditions: cited from earlier work
smiles,measurement,setting,value
CC[C@H](C)[C@H](NC(=O)[C@H](CCCCN)NC(=O)[C@H](Cc1ccccc1)NC(=O)[C@H](CC(C)C)NC(=O)[C@@H]1CCCN1C(=O)[C@H](CCCCN)NC(=O)[C@H](CCCCN)NC(=O)[C@H](CO)NC(=O)[C@@H](N)CCCCN)C(=O)N[C@@H](Cc1c[nH]c2ccccc12)C(=O)N[C@@H](CCCCN)C(=O)N[C@@H](CS)C(=O)N[C@H](C(=O)N[C@@H](CCC(=O)O)C(=O)N[C@@H](CC(N)=O)C(=O)N[C@H](C(=O)N[C@@H](CS)C(=O)N[C@H](C(=O)N[C@@H](CC(C)C)C(=O)N[C@@H](Cc1c[nH]c2ccccc12)C(=O)N[C@@H](Cc1ccc(O)cc1)C(=O)N[C@@H](CCCCN)C(N)=O)C(C)C)C(C)C)C(C)C [NCR169C17–38] (H-KSKKPLFKIWKCVENVCVLWYK-NH2; N-terminus assumed),"membrane integrity, SYTO 9 / PI staining",E. coli; 0.8 µM peptide,predominantly red-stained cells
same,"membrane integrity, SYTO 9 / PI staining",E. coli; 1.6 µM peptide,all cells appeared red
same,MBC after pre-incubation in human serum,A. baumannii,6.3 µM
same,liposome binding,[1]; 2 mM Cardiolipin liposomes,bound strongly
same,liposome binding,[1]; 2 mM DMPC liposomes,no binding
same,"DNA binding, gel retardation",E. coli genomic DNA,completely preventing DNA migration from the well at the lower concentration
same,"RNA binding, gel retardation",E. coli total RNA,completely blocked RNA migration at high concentrations
same,antifungal activity,Candida species,potent antifungal activity
same,antifungal activity,Cryptococcus neoformans,potent antifungal activity
same,cytotoxicity,[2],non-cytotoxic
